Activity calls are given as the source filed them. The calls are words filed in the database; no cut-off is given here.
Columns and labels:
[1] = test system: Vaccinia virus WR; experiment: Antiviral activity against Vaccinia virus WR ATCC VR-1354 infected through intravenous route in BALB/c mouse assessed as reduction of viral load in liver at 100 mg/kg, po qd measured after 3 days postinfection by RT-PCR analysis relative to control; assay type: functional
[2] = test system: Vaccinia virus WR; experiment: Antiviral activity against Vaccinia virus WR ATCC VR-1354 infected through intravenous route in BALB/c mouse assessed as reduction of viral load in brain at 100 mg/kg, po qd measured after 14 days postinfection by RT-PCR analysis relative to control; assay type: functional, organism-based; parameters: dose 100 mg/kg
[3] = test system: Vaccinia virus WR; experiment: Antiviral activity against Vaccinia virus WR ATCC VR-1354 infected through intraperitoneal route in BALB/c mouse assessed as reduction of viral load in brain at 100 mg/kg, po qd measured after 3 days postinfection by RT-PCR analysis relative to control; assay type: functional, organism-based; parameters: dose 100 mg/kg
[4] = test system: Vaccinia virus WR; experiment: Antiviral activity against Vaccinia virus WR ATCC VR-1354 infected through intraperitoneal route in BALB/c mouse assessed as reduction of viral load in liver at 100 mg/kg, po qd measured after 5 days postinfection by RT-PCR analysis relative to control; assay type: functional, organism-based; parameters: dose 100 mg/kg
[5] = test system: Vaccinia virus WR; experiment: Antiviral activity against Vaccinia virus WR ATCC VR-1354 infected through dermal scarification route in ACAM2000 vaccinated BALB/c mouse assessed as reduction of swab virus titers at 100 mg/kg, po qd measured after 7 days postinfection by RT-PCR analysis relative to control; assay type: functional
[6] = test system: Vaccinia virus WR; experiment: Antiviral activity against Vaccinia virus WR ATCC VR-1354 infected through percutaneous route in BALB/c mouse assessed as protection against weight loss at 100 mg/kg, po qd for 1 to 3 days measured on day 8; assay type: functional, organism-based; parameters: dose 100 mg/kg
[7] = test system: Vaccinia virus WR; experiment: Antiviral activity against Vaccinia virus WR ATCC VR-1354 infected through percutaneous route in BALB/c mouse assessed as protection against weight loss at 100 mg/kg, po qd for 5 to 14 days measured on day 8; assay type: functional
[8] = test system: Vaccinia virus WR; experiment: Antiviral activity against Vaccinia virus WR ATCC VR-1354 infected through percutaneous route in BALB/c mouse assessed as protection against hypothermia at 100 mg/kg, po qd for 1 to 3 days measured on day 6; assay type: functional, organism-based; parameters: dose 100 mg/kg
[9] = test system: Vaccinia virus WR; experiment: Antiviral activity against Vaccinia virus WR ATCC VR-1354 infected through percutaneous route in BALB/c mouse assessed as protection against hypothermia at 100 mg/kg, po qd for 5 to 14 days; assay type: functional, organism-based; parameters: dose 100 mg/kg
[10] = test system: Vaccinia virus WR; experiment: Antiviral activity against Vaccinia virus WR ATCC VR-1354 infected through percutaneous route in BALB/c mouse assessed as protection against virus-induced systemic disease symptoms at 100 mg/kg, po qd measured after 6 days postinfection; assay type: functional, organism-based; parameters: dose 100 mg/kg
[11] = test system: Vaccinia virus WR; experiment: Antiviral activity against Vaccinia virus WR ATCC VR-1354 infected through percutaneous route in BALB/c mouse assessed as reduction of viral load in spleen at 100 mg/kg, po qd for 3 days by RT-PCR analysis relative to control; assay type: functional
[12] = test system: Vaccinia virus WR; experiment: Antiviral activity against Vaccinia virus WR ATCC VR-1354 infected through percutaneous route in BALB/c mouse assessed as inhibition of virus dissemination in liver at 100 mg/kg, po qd for 1 day by RT-PCR analysis; assay type: functional, organism-based; parameters: dose 100 mg/kg
[13] = test system: Vaccinia virus WR; experiment: Antiviral activity against Vaccinia virus WR ATCC VR-1354 infected through percutaneous route in BALB/c mouse assessed as inhibition of virus dissemination in blood at 100 mg/kg, po qd for 3 to 14 days by RT-PCR analysis; assay type: functional, organism-based; parameters: dose 100 mg/kg
[14] = test system: Vaccinia virus WR; experiment: Antiviral activity against Vaccinia virus WR ATCC VR-1354 infected through intravenous route in BALB/c mouse assessed as protection against virus-induced systemic disease symptoms at 100 mg/kg, po qd measured after 9 days postinfection; assay type: functional, organism-based; parameters: dose 100 mg/kg
[15] = test system: Vaccinia virus WR; experiment: Antiviral activity against Vaccinia virus WR ATCC VR-1354 infected through intraperitoneal route in BALB/c mouse assessed as protection against virus-induced systemic disease symptoms at 100 mg/kg, po qd measured after 9 days postinfection; assay type: functional, organism-based; parameters: dose 100 mg/kg
[16] = test system: Vaccinia virus WR; experiment: Antiviral activity against Vaccinia virus WR ATCC VR-1354 infected through intravenous route in BALB/c mouse assessed as protection against virus-induced conjunctivitis in mouse eyes at 100 mg/kg, po qd measured after 6 days postinfection; assay type: functional, organism-based; parameters: dose 100 mg/kg
[17] = test system: Vaccinia virus WR; experiment: Antiviral activity against Vaccinia virus WR ATCC VR-1354 infected through percutaneous route in BALB/c mouse assessed as reduction of viral load in lungs at 100 mg/kg, po qd measured after 3 days postinfection by RT-PCR analysis relative to control; assay type: functional
[18] = test system: Vaccinia virus WR; experiment: Antiviral activity against Vaccinia virus WR ATCC VR-1354 infected through percutaneous route in BALB/c mouse assessed as reduction of viral load in blood at 100 mg/kg, po qd measured after 3 days postinfection by RT-PCR analysis relative to control; assay type: functional
[19] = test system: Vaccinia virus WR; experiment: Antiviral activity against Vaccinia virus WR ATCC VR-1354 infected through percutaneous route in BALB/c mouse assessed as reduction of viral load in brain at 100 mg/kg, po qd measured after 3 days postinfection by RT-PCR analysis relative to control; assay type: functional
[20] = test system: Vaccinia virus WR; experiment: Antiviral activity against Vaccinia virus WR ATCC VR-1354 infected through percutaneous route in BALB/c mouse assessed as reduction of viral load in blood at 100 mg/kg, po qd measured after 5 days postinfection by RT-PCR analysis relative to control; assay type: functional
[21] = test system: Vaccinia virus WR; experiment: Antiviral activity against Vaccinia virus WR ATCC VR-1354 infected through percutaneous route in BALB/c mouse assessed as reduction of viral load in liver at 100 mg/kg, po qd measured after 5 days postinfection by RT-PCR analysis relative to control; assay type: functional
[22] = test system: Vaccinia virus WR; experiment: Antiviral activity against Vaccinia virus WR ATCC VR-1354 infected through percutaneous route in BALB/c mouse assessed as reduction of viral load in blood at 100 mg/kg, po qd measured after 13 days postinfection by RT-PCR analysis relative to control; assay type: functional, organism-based; parameters: dose 100 mg/kg
[23] = test system: Vaccinia virus WR; experiment: Antiviral activity against Vaccinia virus WR ATCC VR-1354 infected through percutaneous route in BALB/c mouse assessed as reduction of viral load in brain at 100 mg/kg, po qd measured after 13 days postinfection by RT-PCR analysis relative to control; assay type: functional, organism-based; parameters: dose 100 mg/kg
[24] = test system: Vaccinia virus WR; experiment: Antiviral activity against Vaccinia virus WR ATCC VR-1354 infected through dermal scarification route in BALB/c mouse assessed as reduction of viral load in spleen at 100 mg/kg, po qd measured after 5 days postinfection by RT-PCR analysis relative to control; assay type: functional
[25] = test system: Vaccinia virus WR; experiment: Antiviral activity against Vaccinia virus WR ATCC VR-1354 infected through dermal scarification route in BALB/c mouse assessed as reduction of viral load in liver at 100 mg/kg, po qd measured after 5 days postinfection by RT-PCR analysis relative to control; assay type: functional
[26] = test system: Vaccinia virus WR; experiment: Antiviral activity against Vaccinia virus WR ATCC VR-1354 infected through dermal scarification route in BALB/c mouse assessed as reduction of viral load in brain at 100 mg/kg, po qd measured after 5 days postinfection by RT-PCR analysis relative to control; assay type: functional

What does the source list for `O=C(NN1C(=O)[C@@H]2[C@@H]3C=C[C@@H]([C@H]4C[C@@H]34)[C@@H]2C1=O)c1ccc(C(F)(F)F)cc1` [TECOVIRIMAT]?
fold change (FC) [1]: 8; Activity [2]: Active; Activity [3]: inactive; Activity [4]: Active; fold change (FC) [5]: 53; Activity [6]: inactive; Activity [7]: >70%; Activity [8]: Active; Activity [9]: Active; Activity [10]: Active; fold change (FC) [11]: 300; Activity [12]: inactive; Activity [13]: Active; Activity [14]: Active; Activity [15]: Active; Activity [16]: Active; fold change (FC) [17]: 4; fold change (FC) [18]: 8; fold change (FC) [19]: 1.78; fold change (FC) [20]: 90; fold change (FC) [21]: 300; Activity [22]: Active; Activity [23]: Active; fold change (FC) [24]: 16; fold change (FC) [25]: 8; fold change (FC) [26]: 3
